{
  "source": "patent US20100273748A1",
  "about": "“ANTIMICROBIAL THERAPY” (priority 2006, published 2010)",
  "key": {"[1]": {"tested_on": "cathelicidin", "assay": "qPCR of cathelicidin mRNA in cultured keratinocytes", "assay_type": "cell-based, human", "description": "(§1) Cell culture and stimuli. Human keratinocytes were grown in serum-free EpiLife® cell culture media (Cascade Biologics; Portland, Oreg.) containing 0.06 mM Ca2+ and 1× EpiLife® defined growth supplement (EDGS) at 37° C. under standard tissue culture conditions. Stock cultures were maintained for up to five passages in this media with the addition of 50 U/mL penicillin and 50 μg/mL streptomycin. HaCaT keratinocytes were cultured in DMEM (Sigma, St. Louis, Mo.) with 10% FCS. Cells at 50-70% confluence were stimulated in fresh medium after preincubation with 1,25(OH)2 vitamin D3 (1,25D3; 0.1-100 nM, 4-24 h; Sigma). Alternatively, NHEK were stimulated in the presence of 1,25D3 (0.1-100 nM). Stimuli included TLR2,6 ligands Malp-2 (0.001-0.5 μg/ml; Alexis Biochemicals, Carlsbad, Calif.), FSL-1 (1-2 μg/ml, Invivogen, San Diego, Calif.) and zymosan (50 μg/ml; Invivogen), as well as flagellin (50 ng/ml; Alexis), LPS (1 μg/ml; Sigma), lipoteichoic acid (LTA; 10 μg/ml; Sigma), 19 kDA lipopeptide (10 μg/ml, a kind gift from S. Krutzik, Division of Dermatology, UCLA), CpG DNA (10 μg/ml; Sigma), Ca2+ (1.7 mM), LPS (1 μg/ml; Sigma), TNFα (20 ng/ml; Chemicon Temecula, Calif.) and TGFβ1 (0.1-1 μg/ml; R&D Systems, Minneapolis, Minn.). A TLR2 blocking antibody (αTLR2; clone TL2.1, 5 μg/ml, eBioscience, San Diego, Calif.) was utilized to investigate the role of TLR2 signaling. Furthermore, keratinocytes were pretreated with a vitamin D receptor antagonist (VDR-antagonist ZK159222 Schering AG; 10^-7M) or the CYP inhibitor itraconazole (ITRA; 10^-7M) before stimulation with TGFβ in the presence of 25OH vitamin D3 (25D3, 10 nM, Sigma).\n(§2) Real-time RT-PCR (qPCR). RNA was extracted from cells, epidermal constructs or tissue using Trizol® and 1 μg RNA was reverse transcribed using iScript® (BioRad, Hercules, Calif.). Expression of cathelicidin and GAPDH was analysed by real-time RT-PCR. Predeveloped Taqman® assay probes (ABI, Foster City, Calif.) were used for the analyses of the expression of CYP24A1 (24-hydroxylase), CYP27B1 (1α-hydroxylase), CD14, CD36, TLR1, TLR2, TLR4, TLR6 and murine CD14. All analyses were performed in triplicate from 2-5 independent experiments in an ABI Prism® 7000 Sequence Detection System. Fold induction relative to the vehicle treated control in in vitro experiments was calculated using the comparative Ct method, where ΔΔCt is ΔCt(stimulant)-ΔCt(vehicle), ΔCt is Ct(gene)-Ct(GAPDH) and Ct is the cycle at which an arbitrary detection threshold is crossed. For quantification of transcript abundance in tissue samples target gene expression was normalized to GAPDH and compared to non-treated or non-injured skin."}, "[2]": {"tested_on": "CD14", "assay": "qPCR of CD14 mRNA in cultured keratinocytes", "assay_type": "cell-based, human", "details": "for CD14 mRNA expression: 24 hours", "description": "as §1, §2"}, "[3]": {"tested_on": "TLR2", "assay": "qPCR of TLR2 mRNA in cultured keratinocytes", "assay_type": "cell-based, human", "details": "for TLR2 mRNA expression: 24 hours", "description": "as §1, §2"}, "[4]": {"tested_on": "Staphylococcus aureus mprF", "assay": "Radial diffusion assay", "assay_type": "cell-based", "details": "LL-37 incubated in sweat, 37° C., 6 hr", "description": "Sweat collection and processing. Sweat was collected on paper tissues (Kimwipes, Kimberly-Clark, Ga.) from healthy volunteers after exercise. After collection, 20 ml of sweat was centrifuged at 2000 g for 15 min. at 4° C., filtered through a […] (Acrodisc syringe filter, 0.2 mm, low protein binding, Fisher scientific, Tustin, Calif.), and frozen at −80° C. For some experiments sweat was lyophilized to dryness, then suspended in 400 μl of distilled water (DW: cell culture grade, endotoxin free, GibcoBRL, Grand island, NY). For analysis of LL37 processing by sweat, 1.6 nmol of LL-37 synthetic peptide was incubated in 50 ml of sweat for 0, 1, 6, 24 hrs at 37° C. or 4° C. In some experiments proteinase inhibitors including; mixed protease inhibitor cocktail (1tab/10 ml, Roche, Indianapolis, Ind.), […] Bestatin, 10 mg/ml E-64, 10 mg/ml Aprotinin, (Sigma, St Louis, Mo.); 100 mM AEBSF, 100 mM Neutrophil elastase inhibitor (NEI) or 100 mM leukocyte elastase inhibitor (LEI) (Calbiochem, San Diego, Calif.) were added during incubation. After incubation, 2 ml was assayed by radial diffusion assay to determine antibacterial activity. For analysis by HPLC 32 nmoles LL-37 was incubated in 100u1. To control for potential contamination from paper tissues, parallel processing was done on tissues soaked in phosphate-buffered saline (PBS:137 mM NaCl, 2.7 mM KCL, 4.3 mM Na2HPO4-H2O, 1.4 mM KH2PO4, pH 7.4). No antimicrobial activity was detectable in these preparations. Protein concentrations were evaluated by BCA assay (protein assay reagent, Pierce, Rockford, Ill.) or Bradford protein assay (Bio-Rad, Hercules, Calif.) according to manufacture's instructions. Human tissue and blood collection was approved by the UCSD Human Research Protection Program.\nAntimicrobial assays. For screening of antimicrobial activity of HPLC fractions, radial diffusion assay was used. Lyophilized HPLC fractions were dissolved in DW (GibcoBRL, Grand Island, N.Y.), and tested against Staphylococcus aureus mprF. Thin plates (1 mm) of 1% agarose in 0.5% tryptone containing approximately 1×10^6 cells/ml of S. aureus mprF were used. 1 mm wells were punched in the plates and […] of samples dissolved in tissue culture grade sterile water were loaded in each well."}, "[5]": {"tested_on": "acetylated histone H4", "assay": "Histone H4 acetylation in keratinocytes (immunofluorescence, Western blot)", "assay_type": "cell-based, human", "details": "NHEK stimulated with butyrate or TLR ligand", "description": "Panel a; Immunofluorescence staining of acetylated histone H4 protein in NHEK treated with HDACi in the presence or absence of 1,25D3. […] Panel b: Western blot of acetylated histone 4 from keratinocytes treated with the HDACi butyrate or TLR agonists. […] Bar=30 μM.\nThe abundance of acetylated histone was directly measured to confirm the inhibitory effects of butyrate and TSA on HDACs. […] To determine if changes in histone acetylation occur upon stimulation of keratinocytes with TLR ligands NHEK were stimulated with different TLR ligands and histone acetylation was assessed."}, "[6]": {"tested_on": "Staphylococcus aureus", "assay": "Bacterial growth inhibition (turbidity OD600) with or without carbonate", "assay_type": "cell-based", "details": "for increase of LL-37 antimicrobial activity by carbonate containing compound: medium with 32 μM LL-37, pH 7.4, KHCO3 and Na2CO3 at 50 mM"}, "[7]": {"tested_on": "wild-type S. aureus (clinical isolate)", "assay": "Radial diffusion assay", "assay_type": "cell-based"}, "[8]": {"tested_on": "enteroinvasive E. coli 029", "assay": "Radial diffusion assay", "assay_type": "cell-based"}, "[9]": {"tested_on": "C. albicans", "assay": "Liquid assay, minimum fungicide concentration", "assay_type": "cell-based, Candida albicans", "procedure": "Action against the C. albicans was determined in Dixon medium (0.6% Peptone, 4% Malt Extract, 1% Glucose, 0.1% Ox Bile, 1% Tween-80) in sterile 96-well microtiter plates (Corning Inc., Corning, N.Y.) at a final volume of 50 ml. […] Microtiter plates were incubated at 37° C. for 24 h with peptides, then plated on Dixon agar to determine the MFC (minimum fungicide concentration)."}, "[10]": {"details": "25D3 (10 nM) or TGF (1 μg/ml) alone"}, "[11]": {"details": "25D3 (10 nM) together with TGF (1 μg/ml)"}, "[12]": {"details": "pretreatment with antagonist 10^−7M"}, "[13]": {"details": "radial diffusion and solution assay"}},
  "data": [
    {"molecule": "C=C1CC[C@H](O)C/C1=C/C=C1\\CCC[C@]2(C)[C@@H]([C@H](C)CCCC(C)(C)O)CC[C@@H]12", "note": "[25D3, 25OH vitamin D3]", "values": [
      {"measurement": "cathelicidin mRNA expression", "setting": "[1]; 25D3 (10 nM) or TGF (1 μg/ml) alone, 24 hours", "result": "Neither 25D3 nor TGF alone affected expression"},
      {"measurement": "cathelicidin mRNA expression", "setting": "[1]; 25D3 (10 nM) together with TGF (1 μg/ml), 24 hours", "result": "simultaneous addition induced"},
      {"measurement": "CD14 mRNA expression", "setting": "[2]; [10]", "result": "Neither 25D3 nor TGF alone affected expression"},
      {"measurement": "CD14 mRNA expression", "setting": "[2]; [11]", "result": "simultaneous addition induced"},
      {"measurement": "TLR2 mRNA expression", "setting": "[3]; [10]", "result": "Neither 25D3 nor TGF alone affected expression"},
      {"measurement": "TLR2 mRNA expression", "setting": "[3]; [11]", "result": "simultaneous addition induced"}
    ]},
    {"molecule": "NCCc1ccc(S(=O)(=O)F)cc1", "note": "[AEBSF]", "values": [
      {"measurement": "blocking of the gain in LL-37 antimicrobial activity in sweat by protease inhibitor", "setting": "[4]", "result": "most effective in blocking the increase in antimicrobial activity"}
    ]},
    {"molecule": "CCCc1nc2c(N)nc3ccccc3c2s1", "note": "[CL075]", "values": [
      {"measurement": "acetylation of histone H4", "setting": "[5]", "result": "did not change histone acetylation"}
    ]},
    {"molecule": "CC(C)Cn1cnc2c(N)nc3ccccc3c21", "note": "[Imiquimod]", "values": [
      {"measurement": "acetylation of histone H4", "setting": "[5]", "result": "did not change histone acetylation"}
    ]},
    {"molecule": "O=C([O-])O.[K+]", "note": "[KHCO3]", "values": [
      {"measurement": "increase of LL-37 antimicrobial activity by carbonate containing compound", "setting": "[6]", "result": "also increased antimicrobial activity"}
    ]},
    {"molecule": "O=C([O-])[O-].[Na+].[Na+]", "note": "[Na2CO3]", "values": [
      {"measurement": "increase of LL-37 antimicrobial activity by carbonate containing compound", "setting": "[6]", "result": "also increased antimicrobial activity"}
    ]},
    {"molecule": "CC(/C=C/C(=O)NO)=C\\[C@@H](C)C(=O)c1ccc(N(C)C)cc1", "note": "[Trichostatin A]", "values": [
      {"measurement": "effect of HDAC inhibitor on 1,25D3 induced cathelicidin", "setting": "[1]; TSA 200 ng ml^−1 with 1,25D3 (10^−8M)", "result": "significantly increased 1,25D3 induced cathelicidin"}
    ]},
    {"molecule": "C=C1/C(=C\\C=C2/CCC[C@]3(C)[C@@H]([C@H](C)/C=C/[C@@H](O)C4(C(=O)OCCCC)CC4)CC[C@@H]23)C[C@@H](O)C[C@@H]1O", "note": "[VAZ]", "values": [
      {"measurement": "effect of VDR antagonist on cathelicidin induction by HDAC inhibitor plus 1,25D3", "setting": "[1]; ZK159222 10^−7 M, BUT 2 mM, 1,25D3 10^−8 M, 24 hours", "result": "decreased the capacity of the HDAC inhibitor to increase cathelicidin"},
      {"measurement": "block of cathelicidin induction by TGF plus 25D3", "setting": "[1]; [12]", "result": "blocked this effect"},
      {"measurement": "block of CD14 induction by TGF plus 25D3", "setting": "[2]; [12]", "result": "blocked this effect"},
      {"measurement": "block of TLR2 induction by TGF plus 25D3", "setting": "[3]; [12]", "result": "blocked this effect"}
    ]},
    {"molecule": "Aprotinin", "values": [
      {"measurement": "blocking of the gain in LL-37 antimicrobial activity in sweat by protease inhibitor", "setting": "[4]", "result": "most effective in blocking the increase in antimicrobial activity"}
    ]},
    {"molecule": "FSL-1", "values": [
      {"measurement": "cathelicidin induction by TLR2,6 ligand", "setting": "[1]; in the presence of 1,25D3 (100 nM)", "result": "capable of inducing cathelicidin"}
    ]},
    {"molecule": "Human Beta Defensin-2", "values": [
      {"measurement": "enhancement of peptide activity by 50 mM NaHCO3 (EF)", "setting": "[6]; 20% TSB, 10% FBS, 1 mM NaH2PO4, 150 mM NaCl, pH 7.4", "result": "enhanced"}
    ]},
    {"molecule": "KRIVQRIKDFLRNLVPRTES [KR-20, 20 amino acid cathelicidin derivative generated from LL-37 in sweat]", "values": [
      {"measurement": "Radial Diffusion Assay, minimal inhibitory concentration (MIC), S. aureus (wt)", "setting": "[7]", "result": 4, "unit": "μm"},
      {"measurement": "Radial Diffusion Assay, minimal inhibitory concentration (MIC), E. coli (O29))", "setting": "[8]", "result": 4, "unit": "μm"},
      {"measurement": "fungicidal activity against Candida albicans compared to LL-37", "setting": "[9]", "result": "increased fungicidal activity"}
    ]},
    {"molecule": "PR-39: porcine cathelicidin antimicrobial peptide (RRRPRPPYLPRPRPPPFFPPRLPPRIPPGFPPRFPPRFP; UniProt P80054 131-169, looked up)", "values": [
      {"measurement": "change of minimal inhibitory concentration (MIC) by NaHCO3", "setting": "[6]; 20% TSB, 1 mM NaH2PO4, with or without 50 mM NaHCO3, pH 7.4", "result": "greatly reduced"}
    ]},
    {"molecule": "Poly(I:C)", "values": [
      {"measurement": "acetylation of histone H4", "setting": "[5]", "result": "did not change histone acetylation"}
    ]},
    {"molecule": "RKSKEKIGKEFKRIVQRIKDFLRNLVPRTES [RK-31, cathelicidin peptide generated from LL-37 in sweat]", "values": [
      {"measurement": "action against wild-type S. aureus compared to LL-37", "setting": "[7]; [13]", "result": "greatly increased action"},
      {"measurement": "action against E. coli compared to LL-37", "setting": "[8]; [13]", "result": "greatly increased action"},
      {"measurement": "fungicidal activity against Candida albicans compared to LL-37", "setting": "[9]", "result": "increased fungicidal activity"}
    ]},
    {"molecule": "flagellin", "values": [
      {"measurement": "cathelicidin expression in response to TLR ligand", "setting": "[1]; keratinocytes pretreated with 1,25D3 0.1 nM 24 hours, then TLR ligand 24 hours", "result": "not to other TLR agonists"},
      {"measurement": "acetylation of histone H4", "setting": "[5]", "result": "did not change histone acetylation"}
    ]}
  ]
}
